In this experiment the target is T1, CHK1 kinase (Homo sapiens, UniProt O14757).
T1 construct: glutathione S-transferase (GST); made in house; host or cells: Sf21 insect cells (S. frugiperda), baculovirus
T1 sequence (O14757 1-476): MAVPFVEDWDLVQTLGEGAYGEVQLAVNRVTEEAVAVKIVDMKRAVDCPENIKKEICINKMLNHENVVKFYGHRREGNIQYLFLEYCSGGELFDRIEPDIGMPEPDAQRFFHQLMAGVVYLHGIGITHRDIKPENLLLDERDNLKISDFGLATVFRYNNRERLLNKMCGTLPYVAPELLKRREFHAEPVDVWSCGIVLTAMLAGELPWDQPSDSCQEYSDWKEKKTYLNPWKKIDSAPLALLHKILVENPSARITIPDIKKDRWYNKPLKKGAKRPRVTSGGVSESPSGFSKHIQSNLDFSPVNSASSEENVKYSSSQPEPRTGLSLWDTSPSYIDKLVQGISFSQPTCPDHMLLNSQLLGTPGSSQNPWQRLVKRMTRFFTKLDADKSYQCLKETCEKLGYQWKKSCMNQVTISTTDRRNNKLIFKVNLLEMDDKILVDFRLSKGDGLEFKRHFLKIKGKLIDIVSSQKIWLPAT
Kind of experiment: Flashplate method (CHK1), measurement of the CHK1 kinase activity. It is filed as biochemical. As to conditions: class symbols; 'Affinity to receptors'. Put shortly:
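GST-tagged CHK1 expressed in Sf21 insect cells, incubated at 30 °C with biotinylated CHKtide (0.15 μg per well) and γ33P-ATP in pH 7.5 buffer (EGTA, Mg acetate, mercaptoethanol, 0.1% BSA). Stopped with EDTA, captured on streptavidin Flashplates and counted by scintillation. IC50 set against uninhibited reaction and 0.1 μM staurosporine as zero.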

`O=c1c(NCc2cccc(OS(=O)(=O)C(F)(F)F)c2)c(Nc2ccc3[nH]cnc3c2)c1=O` [Compound A133, 3-(1H-benzimidazol-5-ylamino)-4-(3-trifluoro-methylsulfonyloxybenzylamino)cyclobut-3-ene-1,2-dione] showed an IC50 of more than 1000 nM. `COc1cccc(CNc2c(Nc3ccc4[nH]cnc4c3)c(=O)c2=O)c1` [Compound A116, 3-(1H-benzimidazol-5-ylamino)-4-(3-methoxybenzylamino)cyclobut-3-ene-1,2-dione]: the concentration for half-maximal inhibition (IC50) was less than 1000 nM. `CC(C)(C)NS(=O)(=O)c1cccc(CNc2c(Nc3ccc4[nH]cnc4c3)c(=O)c2=O)c1` [Compound A41, 3-(1H-benzimidazol-5-ylamino)-4-[3-(tert-butylaminosulfonyl)benzylamino]cyclobut-3-ene-1,2-dione]: the IC50 was more than 1000 nM. The figure for `Cc1cc2[nH]cnc2cc1Nc1c(NCc2cccc(O)c2)c(=O)c1=O` [Compound A126, 3-(3-hydroxybenzylamino)-4-(6-methyl-1H-benzimidazol-5-ylamino)cyclobut-3-ene-1,2-dione] is more than 1000 nM; for `CCN(CC)CCn1cnc2ccc(Nc3c(N[C@H](C)c4cccc(OC)c4)c(=O)c3=O)cc21` [Compound A65, 3-[3-(2-diethylaminoethyl)-3H-benzimidazol-5-ylamino]-4-[(R)-1-(3-methoxyphenyl)ethyl-amino]cyclobut-3-ene-1,2-dione] it is more than 1000 nM; for `O=c1c(NCc2cccc(O)c2)c(NCc2ccc3[nH]nnc3c2)c1=O` [Compound A15, 3-(1H-benzotriazol-5-ylmethylamino)-4-(3-hydroxybenzylamino)cyclobut-3-ene-1,2-dione] it is less than 1000 nM. In the case of `O=C(CC(Nc1c(Nc2ccc3[nH]cnc3c2)c(=O)c1=O)c1cccc(O)c1)N1CCNCC1` (centres unmarked) [Compound A112, 3-(1H-benzimidazol-5-ylamino)-4-[1-(3-hydroxyphenyl)-3-oxo-3-piperazin-1-ylpropyl-amino]cyclobut-3-ene-1,2-dione], the IC50 was less than 1000 nM. `O=c1c(NCc2cccc(O)c2F)c(Nc2ccc3[nH]cnc3c2)c1=O` [Compound A103, 3-(1H-benzimidazol-5-ylamino)-4-(2-fluoro-3-hydroxybenzylamino)cyclobut-3-ene-1,2-dione] came in with a half-maximal inhibitory concentration (IC50) of more than 1000 nM. The molecule `CS(=O)(=O)NCCOc1cccc(CNc2c(Nc3ccc4[nH]cnc4c3)c(=O)c2=O)c1` [Compound A110, 3-(1H-benzimidazol-5-ylamino)-4-[3-(2-methylsulfonylaminoethoxy)benzylamino]-cyclobut-3-ene-1,2-dione] returned a concentration for half-maximal inhibition (IC50) of more than 1000 nM. With `NC(=O)c1c[nH]c2ccc(Nc3c(NCc4cccc(O)c4)c(=O)c3=O)cc12` [Compound A32, 3-(3-aminocarbonyl-1H-indol-5-ylamino)-4-(3-hydroxybenzylamino)cyclobut-3-ene-1,2-dione], the IC50 is more than 1000 nM.

`O=c1c(NCc2ccc(F)c(O)c2)c(Nc2ccc3[nH]cnc3c2)c1=O` [Compound A84, 3-(1H-benzimidazol-5-ylamino)-4-(4-fluoro-3-hydroxybenzylamino)cyclobut-3-ene-1,2-dione]: the concentration for half-maximal inhibition (IC50) was less than 1000 nM.

Values taken from US20080234266A1, “Squaric Acid Derivatives II” (priority 2005, published 2008).
